Earlier results in US6399093B1, “Method and composition to treat musculoskeletal disorders” (Advanced Medical Instruments, priority 1999, dated 2002).

How the values were obtained:
[1] = oral
[2] = oral diclofenac group
[3] = after oral administration

COc1cc2c(c(OC)c1OC)-c1ccc(OC)c(=O)cc1[C@@H](NC(C)=O)CC2 [colchicine, Colchicine]
Patients unable to tolerate an optimal dose because of gastrointestinal side effects [1]: Eighty

O=C(O)Cc1ccccc1Nc1c(Cl)cccc1Cl [diclofenac]
Number of GI reactions relative to the topical eltenac group [2]: three

N[C@H]1C(O)O[C@H](CO)[C@@H](O)[C@@H]1O.O=S(=O)(O)O (stereo partly drawn) [glucosamine sulfate]
Onset of clinical improvement of symptoms [3]: one
